Values of other authors, collected in patent US20240041741A1, “COSMETIC COMPOSITION OBTAINED BY MIXING TWO SILANE BLENDS” (Henkel AG & Co. KGaA, priority 2020, published 2024).

Details: for solubility in water: 25° C.

Compound | solubility in water | solubility in water (in words) (at 25° C.)
O=S(=O)([O-])c1ccc(N=Nc2c(O)ccc3ccccc23)cc1.[Na+] [Acid Orange 7, sodium salt of 4-[(2-hydroxy-1-naphthyl)azo]benzene sulphonate] | more than 7 g/L | –
Nc1cc(S(=O)(=O)[O-])cc2cc(S(=O)(=O)[O-])c(N=Nc3ccccc3)c(O)c12.[Na+].[Na+] [Acid Red 33, diantrium salt of 5-amino-4-hydroxy-3-(phenylazo)-naphthalene-2,7-disulphonate] | 2.5 mg/mL | –
O=C([O-])c1c(Cl)c(Cl)c(Cl)c(Cl)c1-c1c2c(Br)cc(=O)c(Br)c-2oc2c(Br)c(O)cc(Br)c12.O=C([O-])c1c(Cl)c(Cl)c(Cl)c(Cl)c1-c1c2c(Br)cc(=O)c(Br)c-2oc2c(Br)c(O)cc(Br)c12.[Na+].[Na+] [Acid Red 92, disodium salt of 3,4,5,6-tetrachloro-2-(1,4,5,8-tetrabromo-6-hydroxy-3-oxoxanthen-9-yl)benzoic acid] | greater than 10 g/L | –
O=C([O-])C1=NN(c2ccc(S(=O)(=O)[O-])cc2)C(=O)C1N=Nc1ccc(S(=O)(=O)[O-])cc1.[Na+].[Na+].[Na+] (centres unmarked) [Acid Yellow 23, trisodium salt of 4,5-dihydro-5-oxo-1-(4-sulfophenyl)-4-((4-sulfophenyl)azo)-1H-pyrazole-3-carboxylic acid] | – | readily soluble in water
mixture of the sodium salts of mono- and sisulfonic acids of 2-(2-quinolyl)-1H-indene-1,3(2H)-dione [Acid Yellow 3] | 20 mg/mL | –
